# Test results taken from patent publication US11401246B2, “Triazole glycolate oxidase inhibitors” (CANTERO THERAPEUTICS, INC., priority 2018, dated 2022).
# pIC50: −log10 of the molar value. Structures can show the parent of a compound that is named as a salt.
# Molecular target: T1, human glycolate oxidase (hGO) (Homo sapiens, UniProt Q9UJM8)
# T1 construct: His-tag (6 histidines, pET-15b) (N); made in house; host or cells: E. coli BL21 (DE3)
# T1 sequence (Q9UJM8 1-370): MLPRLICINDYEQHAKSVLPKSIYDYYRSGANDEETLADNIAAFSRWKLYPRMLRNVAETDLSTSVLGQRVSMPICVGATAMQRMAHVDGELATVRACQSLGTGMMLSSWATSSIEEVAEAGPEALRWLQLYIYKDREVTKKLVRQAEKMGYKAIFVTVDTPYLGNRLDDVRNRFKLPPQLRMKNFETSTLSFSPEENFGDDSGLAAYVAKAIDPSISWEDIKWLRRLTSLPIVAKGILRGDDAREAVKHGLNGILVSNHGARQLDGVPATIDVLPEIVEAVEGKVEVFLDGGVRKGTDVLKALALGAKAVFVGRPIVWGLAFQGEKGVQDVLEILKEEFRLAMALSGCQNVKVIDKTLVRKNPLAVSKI
# Experiment: In vitro inhibition of human glycolate oxidase (enzymatic assay, HRP-coupled Trinder reaction);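 for % Inhibition: values are IC50 potency bins despite the % Inhibition label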
# Format: biochemical
# Settings: not given
# From the text: The catalytic reactions used for assaying glycolate oxidase activity in the presence of compounds according to the present disclosure are outlined in FIG. 2. Glycolate oxidase (GO)-catalyzed conversion of glycolate to glyoxylate (top reaction), with the concomitant reduction of the cofactor flavin mononucleotide (FMN), uses molecular oxygen (O2) for recovering its oxidative state, releasing hydrogen peroxide (H2O2). The Trinder reaction (bottom reaction), in which horseradish peroxidase (HRP) uses hydrogen peroxide, 4-aminoantipyrine and a phenol derivative (sulphonated DCIP) to generate a quinoneimine dye that is spectrophotometrically measured.
# Human glycolate oxidase (hGO) expression. BL21 (DE3) E. coli transformed with recombinant pET-15b expression vector with the N-terminal His-tag human Hao1 cDNA was grown in LB medium in the presence of 0.1 mg/ml ampicillin. For purification of recombinant human glycolate oxidase (hGO) expressed in BL21 E. coli, bacteria pellets were thawed and re-suspended in 2 ml lysis buffer (50 mM NaH2PO4, 300 mM NaCl, 10 mM imidazole, 50 μM FMN, pH 7.5), and then treated for 30 minutes with 1 mM PMSF for protease inhibition, 0.1% Triton X-100 and 0.2 mg/ml lysozyme to break cellular membranes. After sonication, cells were centrifuged and the supernatant containing the total cellular extract (pre-column fraction) was loaded into a Ni-NTA agarose column and incubated for 30 minutes at 4° C. to allow binding of the 6 histidine tail of recombinant GO protein to the nickel ions. The column was washed with two bed volumes of lysis buffer with 20 mM imidazole to eliminate unbound proteins (wash fraction). GO was eluted using the same buffer with 300 mM imidazole. Fraction containing purified GO was dialyzed against 300 ml of dialysis buffer (50 mM NaH2PO4, 300 mM NaCl, pH 7.5) at 4° C. in agitation overnight, and then kept at 4° C. in darkness. Protein were quantified by the bicinchoninic acid (BCA) assay.
# Enzymatic assays. Enzymatic activity of hGO was determined in the presence of glycolate as substrate (40 mM glycolic acid) and phosphate buffer (50 mM KPO4, 0.1 mM EDTA, pH 7). The production of glyoxylate was indirectly measured by the quantification of hydrogen peroxide formed during the first oxidation reaction. […] Enzymatic activity was calculated at 1 minute after initiation of the Trinder reaction.
row,Structure (SMILES),pIC50
1,"Cc1ccc(-c2ccc(Oc3[nH]nnc3C(=O)O)cc2)cc1 [Example 31, 5-((4′-methyl-[1,1′-biphenyl]-4-yl)oxy)-1H-1,2,3-triazole-4-carboxylic Acid]",> 7.00
2,"O=C(O)c1nn[nH]c1Oc1ccc(C2CCCC2)cc1 [Example 69, 5-(4-cyclopentylphenoxy)-1H-1,2,3-triazole-4-carboxylic Acid]",6.70 to 7.00
3,"O=C(O)c1nn[nH]c1Oc1ccccc1 [Example 45, 5-phenoxy-1H-1,2,3-triazole-4-carboxylic Acid]",< 6.70
4,"Cc1cc(Oc2[nH]nnc2C(=O)O)ccc1Br [Example 71, 5-(4-bromo-3-methylphenoxy)-1H-1,2,3-triazole-4-carboxylic Acid]",> 7.00

# Same assay, conditions: recombinant hGO, 40 mM glycolic acid, pH 7, read at 515 nm, 1 minute after initiation of Trinder reaction; read-out: % Inhibition
row,Structure (SMILES),pIC50
1,"CC(C)c1ccc(-c2ccc(Sc3[nH]nnc3C(=O)O)cc2)cc1 [Example 113, 5-((4′-isopropyl-[1,1′-biphenyl]-4-yl)thio)-1H-1,2,3-triazole-4-carboxylic Acid]",6.70 to 7.00
2,"O=C(O)c1nn[nH]c1Oc1ccc(-c2ccc(-c3cccc(OC(F)F)c3)cc2)cc1 [Example 16, 5-((3″-(difluoromethoxy)-[1,1′:4′,1″-terphenyl]-4-yl)oxy)-1H-1,2,3-triazole-4-carboxylic Acid]",> 7.00
3,"CN1CCN(c2ccc(Oc3[nH]nnc3C(=O)O)cc2)CC1 [Example 65, 5-(4-(4-methylpiperazin-1-yl)phenoxy)-1H-1,2,3-triazole-4-carboxylic Acid]",< 6.70
4,"O=C(O)c1nn[nH]c1Oc1ccc(N2CCOCC2)cc1 [Example 1, 5-(4-morpholinophenoxy)-1H-1,2,3-triazole-4-carboxylic Acid]",< 6.70
5,"O=C(O)c1nn[nH]c1Sc1ccc(-c2ccc(C(F)(F)F)cc2)cc1 [Example 115, 5-((4′-(trifluoromethyl)-[1,1′-biphenyl]-4-yl)thio)-1H-1,2,3-triazole-4-carboxylic Acid]",6.70 to 7.00
6,"O=C(O)c1nn[nH]c1Oc1ccc(-c2cccc(F)c2F)cc1 [Example 34, 5-((2′,3′-difluoro-[1,1′-biphenyl]-4-yl)oxy)-1H-1,2,3-triazole-4-carboxylic Acid]",6.70 to 7.00
7,"O=C(O)c1nn[nH]c1Oc1cccc(Br)c1 [Example 7, 5-(3-bromophenoxy)-1H-1,2,3-triazole-4-carboxylic Acid]",6.70 to 7.00
8,"O=C(O)c1nn[nH]c1Oc1ccc(-c2cccnc2)cc1 [Example 14, 5-(4-(pyridin-3-yl)phenoxy)-1H-1,2,3-triazole-4-carboxylic Acid]",6.70 to 7.00
9,"Cc1cc(-c2ccc(-c3ccc(Oc4[nH]nnc4C(=O)O)cc3)cc2)ccn1 [Example 129, 5˜((4′-(2-methylpyridin-4˜yl)-[1,1′-biphenyl]-4-yl)oxy)-1H-1,2,3-triazole-4-carboxylic Acid]",6.70 to 7.00
10,"O=C(O)c1nn[nH]c1Oc1ccc(N2CCNCC2)cc1 [Example 2, 5-(4-(piperazin-1-yl)phenoxy)-1H-1,2,3-triazole-4-carboxylic Acid]",> 7.00
11,"N#Cc1ccc(-c2cccc(Oc3[nH]nnc3C(=O)O)c2)cc1 [Example 64, 5-((4′-cyano-[1,1′-biphenyl]-3-yl)oxy)-1H-1,2,3-triazole-4-carboxylic Acid]",6.70 to 7.00
12,"O=C(O)c1nn[nH]c1Oc1ccc(C23CC(C2)C3)cc1 [Example 76, 5-(4-(3-bicyclo[1.1.1]pentan-1-yl)phenoxy)-1H-1,2,3-triazole-4-carboxylic Acid]",> 7.00
13,"CC(C)c1ccc(-c2ccc(Oc3[nH]nnc3C(=O)O)cc2)cc1 [Example 32, 5-((4′-isopropyl-[1,1′-biphenyl]-4-yl)oxy)-1H-1,2,3-triazole-4-carboxylic Acid]",> 7.00
14,"O=C(O)c1nn[nH]c1Oc1ccc(C2CCSCC2)cc1 [Example 97, 5-(4-(tetrahydro-2H-thiopyran-4-yl)phenoxy)-1H-1,2,3-triazole-4-carboxylic Acid]",6.70 to 7.00
15,"O=C(O)c1nn[nH]c1Oc1ccc(-c2cncc3ccccc23)cc1 [Example 96, 5-(4-(isoquinolin-4-yl)phenoxy)-1H-1,2,3-triazole-4-carboxylic Acid]",6.70 to 7.00
16,"O=C(O)c1nn[nH]c1Oc1ccc(F)cc1 [Example 9, 5-(4-fluorophenoxy)-1H-1,2,3-triazole-4-carboxylic Acid Sodium Salt]",< 6.70

row,Structure (SMILES),pIC50
1,"Cc1ncc(-c2ccc(Oc3[nH]nnc3C(=O)O)cc2)cn1 [Example 13, 5-(4-(2-methylpyrimidin-5-yl)phenoxy)-1H-1,2,3-triazole-4-carboxylic Acid]",> 7.00
2,"N#Cc1ccc(Oc2[nH]nnc2C(=O)O)cc1 [Example 53, 5-(4-cyanophenoxy)-1H-1,2,3-triazole-4-carboxylic Acid]",> 7.00
3,"O=C(O)c1nn[nH]c1Oc1ccc(-c2cnn(C3CCC3)c2)cc1 [Example 21, 5-(4-(1-cyclobutyl-1H-pyrazol-4-yl)phenoxy)-1H-1,2,3-triazole-4-carboxylic Acid]",> 7.00
4,"O=C(O)c1nn[nH]c1Oc1ccc(-c2ccc(OC(F)F)cc2)cc1 [Example 39, 5-((4′-(difluoromethoxy)-[1,1′-biphenyl]-4-yl)oxy)-1H-1,2,3-triazole-4-carboxylic Acid]",6.70 to 7.00
5,"O=C(O)c1nn[nH]c1Oc1ccc(-c2cccc3ccccc23)cc1 [Example 94, 5-(4-(1-naphthyl)phenoxy)-1H-1,2,3-triazole-4-carboxylic Acid]",> 7.00
6,"O=C(O)c1nn[nH]c1Oc1ccc(-c2ccc(C(F)(F)F)cc2)cc1F [Example 104, 5-((3-fluoro-4′-(trifluoromethyl)-[1,1′-biphenyl]-4-yl)oxy)-1H-1,2,3-triazole-4-carboxylic Acid]",6.70 to 7.00
7,"O=C(O)c1nn[nH]c1Oc1ccc(-c2ccnc3ccccc23)cc1 [Example 83, 5-(4-(quinolin-4-yl)phenoxy)-1H-1,2,3-triazole-4-carboxylic Acid]",> 7.00
8,"O=C(O)c1nn[nH]c1Oc1ccc(-c2ccoc2)cc1 [Example 41, 5-(4-(furan-3-yl)phenoxy)-1H-1,2,3-triazole-4-carboxylic Acid]",6.70 to 7.00
9,"Cc1cc(-c2ccc(Oc3[nH]nnc3C(=O)O)cc2)cnc1F [Example 82, 5-(4-(6-fluoro-5-methylpyridin-3-yl)phenoxy)-1H-1,2,3-triazole-4-carboxylic Acid]",> 7.00
10,"COc1ccc(-c2ccc(Oc3[nH]nnc3C(=O)O)cc2OC)c(OC)n1 [Example 91, 5-(4-(2,6-dimethoxypyridin-3-yl)-3-methoxyphenoxy)-1H-1,2,3-triazole-4-carboxylic Acid]",> 7.00
11,"O=C(O)c1nn[nH]c1Oc1ccc(C(F)(F)F)cc1 [Example 60, 5-(4-(trifluoromethyl)phenoxy)-1H-1,2,3-triazole-4-carboxylic Acid]",> 7.00
12,"O=C(O)c1nn[nH]c1Oc1ccc(Br)c(Cl)c1 [Example 48, 5-(4-bromo-3-chlorophenoxy)-1H-1,2,3-triazole-4-carboxylic Acid]",> 7.00
13,"O=C(O)c1nn[nH]c1Oc1cccnc1F [Example 57, 5-((2-fluoropyridin-3-yl)oxy)-1H-1,2,3-triazole-4-carboxylic Acid]",< 6.70
14,"CN(C)c1cccc(Oc2[nH]nnc2C(=O)O)c1 [Example 58, 5-(3-(dimethylamino)phenoxy)-1H-1,2,3-triazole-4-carboxylic Acid]",> 7.00
15,"O=C(O)c1nn[nH]c1Sc1ccc(F)cc1 [Example 47, 5-((4-fluorophenyl)thio)-1H-1,2,3-triazole-4-carboxylic Acid]",6.70 to 7.00
